Assay results as given in patent US20250296948A1, “SYNTHESIS OF NUCLEOSIDE DERIVATIVES” (Nucana plc, priority 2022, published 2025).

Experiments:
[1] = 6 month dry powder stability, HPLC assay; assay type: physicochemical
Description: (§1) NUC-3373 prepared according to Example 3 and Comparative Example 4 was packed into a transparent LDPE bag which was then filled with nitrogen and tied with a strip seal. This bag was then placed into another transparent LDPE bag which was also filled with nitrogen. A silica gel packet was placed between the two bags before the outermost bag was tied with a strip seal. These bags were then placed in a triple laminated sun light barrier bag which was sealed with a heat sealer. The bags were kept in a HDPE container.
(§2) NUC-3373 was initially assayed by HPLC after manufacture (0 months) then after 1 and 2 and/or 3 and 6 months of storage at 2-8° C., 25° C. or 40° C.

[2] = 6 month dry powder stability, Alpha Naphthol content by HPLC; assay type: physicochemical
Description: as §1, §2
The Alpha Naphthol content of the same batches was also determined by HPLC. The levels of the alpha naphthol impurity is a key indicator of stability of the tested material.

In the case of `C[C@H](NP(=O)(OC[C@H]1O[C@@H](n2cc(F)c(=O)[nH]c2=O)CC1O)Oc1cccc2ccccc12)C(=O)OCc1ccccc1` (stereo partly drawn) [Example 3, Batch 3, 5-fluoro-2′-deoxyuridine-5′-O-[1-naphthyl (benzoxy-L-alaninyl)] phosphate], the “Decrease after 6 months, HPLC assay” value ([1]; 2-8 ° C.) is reported as “None”, the “HPLC assay (% w/w on anhydrous and solvent free basis)” value ([1]; 2-8 ° C., 0 months) is reported as 100.3 % w/w and the “HPLC assay (% w/w on anhydrous and solvent free basis)” value ([1]; 2-8 ° C., 3 months) is reported as 101.9 % w/w. The “HPLC assay (% w/w on anhydrous and solvent free basis)” value ([1]; 2-8 ° C., 6 months) was 100.5 % w/w, the “Decrease after 6 months, HPLC assay” value ([1]; 25 ° C.) was “None” and the “HPLC assay (% w/w on anhydrous and solvent free basis)” value ([1]; 25 ° C., 0 months) was 100.3 % w/w. For the same compound, the “HPLC assay (% w/w on anhydrous and solvent free basis)” value ([1]; 25 ° C., 3 months) was 101.8 % w/w, the “HPLC assay (% w/w on anhydrous and solvent free basis)” value ([1]; 25 ° C., 6 months) was 101.0 % w/w and the “Decrease after 6 months, HPLC assay” value ([1]; 40 ° C.) was “None”. For the same compound, the “HPLC assay (% w/w on anhydrous and solvent free basis)” value ([1]; 40 ° C., 0 months) was 100.3 % w/w, the “HPLC assay (% w/w on anhydrous and solvent free basis)” value ([1]; 40 ° C., 1 month) was 100.6 % w/w and the “HPLC assay (% w/w on anhydrous and solvent free basis)” value ([1]; 40 ° C., 2 months) was 101.5 % w/w. For the same compound, the “HPLC assay (% w/w on anhydrous and solvent free basis)” value ([1]; 40 ° C., 3 months) was 102.2 % w/w, the “HPLC assay (% w/w on anhydrous and solvent free basis)” value ([1]; 40 ° C., 6 months) was 100.8 % w/w and the “Increase after 6 months, Alpha Naphthol by HPLC” value (“Increase after 6 months” for short) ([2]; 2-8 ° C.) was “None”. The “Alpha Naphthol by HPLC (% w/w)” value ([2]; 2-8 ° C., 0 months) was 0.18 % w/w, the “Alpha Naphthol by HPLC (% w/w)” value ([2]; 2-8 ° C., 3 months) was 0.18 % w/w and the “Alpha Naphthol by HPLC (% w/w)” value ([2]; 2-8 ° C., 6 months) was 0.17 % w/w. The “Increase after 6 months” value ([2]; 25 ° C.) was “None”, the “Alpha Naphthol by HPLC (% w/w)” value ([2]; 25 ° C., 0 months) was 0.18 % w/w and the “Alpha Naphthol by HPLC (% w/w)” value ([2]; 25 ° C., 3 months) was 0.18 % w/w. For the same compound, the “Alpha Naphthol by HPLC (% w/w)” value ([2]; 25 ° C., 6 months) was 0.17 % w/w, the “Increase after 6 months” value ([2]; 40 ° C.) was “None” and the “Alpha Naphthol by HPLC (% w/w)” value ([2]; 40 ° C., 0 months) was 0.18 % w/w. For the same compound, the “Alpha Naphthol by HPLC (% w/w)” value ([2]; 40 ° C., 1 month) was 0.17 % w/w, the “Alpha Naphthol by HPLC (% w/w)” value ([2]; 40 ° C., 2 months) was 0.17 % w/w and the “Alpha Naphthol by HPLC (% w/w)” value ([2]; 40 ° C., 3 months) was 0.17 % w/w. The “Alpha Naphthol by HPLC (% w/w)” value ([2]; 40 ° C., 6 months) was 0.15 % w/w.
